Experimental findings from article PMC6211230, “Assessment of the antiproliferative and apoptotic roles of sulfonamide carbonic anhydrase IX inhibitors in HeLa cancer cell line” (Journal of Enzyme Inhibition and Medicinal Chemistry, 2018) are described below.

Experiment [1] concerns PNT-1A. As to the kind of experiment: WST-1 cytotoxicity, PNT-1A normal cells. The format is cell-based, human. The settings on record: PNT-1A normal cell. As for the experimental part: Cancer and normal cell lines were purchased from ATCC and stored in liquid nitrogen. HT-29 (colon adenoma cancer), HeLa (cervix adenoma cancer cell), MDA-MB-231 (breast adenoma cancer cell) and HEK-293 (embryonic kidney epithelial cell), PNT-1A (normal prostate cells) cell lines were incubated in DMEM: F-12 and RPMI-1640, including 10% Foetal Bovine Serum (FBS), 100 μg/mL streptomycin/100 IU/mL penicillin, at 37 °C in an incubator containing 5% CO2, 95% air in a humid atmosphere.
The cytotoxic effects of the substances were evaluated with WST-1 kits (Roche, Germany) in accordance with the manufacturer’s protocols. The cells were plated on 96-well plates (10^4 cells in each well). After incubation for 24 h, the media were discarded and the substances and Cisplatin as the control drug, at doses of 0, 2.5, 5, 10, 25, 50, 100, and 200 μM, were incubated for 24, 48, and 72 h. WST-1 reactive of 10 µl was added to all wells. Following 4 h incubation, the measurements were taken on a plate reader (Spectramax M5) at wavelengths of 450 and 630 nm. Graphs were then created and the IC50 value of each substance was calculated.

The test system of experiment [2] is HeLa cells. As to the kind of experiment: Cell cycle assay by flow cytometry. The format is cell-based, human. The settings on record: 50 μM, 24 h. As for the experimental part: Cell cycle analysis was performed using BD Cycletest™ Plus DNA Reagent kit (BD Biosciences, New Jersey, USA). According to the kit protocol, 1 × 10^6 cells were plated on 6-well plates, and following 24 h, the cells were incubated for 24 h, with sulfonamide derivative compounds at concentrations of 10–25–50 μM. The cells were raised with trypsin handling and centrifuged at 1500 rpm for 5 min. A suspension was formed with 1X binding buffer, and respectively, 250 µl solution A was added and incubated in a light-free environment for 10 min; 200 µl solution B was added and incubated in a light-free environment for 10 min; and 200 µl solution C was added and incubated in at +4 °C in a protected-light environment for 10 min. All analyses were performed by flow cytometry (BD Via, New Jersey, USA).

Consider `NS(=O)(=O)c1ccc(CCN=Cc2cc(Cl)ccc2O)cc1` [Compound A-1], for which the IC50 in experiment [1] (24 h) was 389 µM. The IC50 in experiment [1] (48 h) turned out to be 110 µM. Also, in experiment [1] (72 h), the 50% inhibitory concentration (IC50) was determined as 203 µM. In experiment [2], the “cells in G0/G1” value worked out at 65.7%, the “cells in G2/M” value is 13.8% and the “cells in S” value turned out to be 19.4%.
